Measurements published in patent publication US6929685B2, “Alkylamine derivatives as antifouling agents” (Bayer Atiengesellschaft, priority 2001, dated 2005).

How the values were obtained:
Details in all cases: Dutch harbor, sea water
[1] = system: algae; assay: Raft panel static immersion test of antifouling paints: algae; design: key: G: Not present; Some light slime; F: Overall covered
Excerpt: (§1) The prepared paints have been evaluated on can stability, adhesion and film defects. The antifouling performance has been tested by application of the paints on raft panels. At first the steel panels had been protected with a standard anticorrosive system for marine environments (300 μm in dft). The to be tested antifouling paint had been applied in 2 layers with a total dry film thickness between 200 and 300 μm. Finally the panels were subjected to a static immersion test on rafts at sea harbors in Holland. The paints were inspected for the presence of fouling (% of area covered with fouling organisms) and of film defects every two months. The tested paint formulations are represented in Table 1.
(§2) Further explanations to Table 1: • 1. Model coatings of type 1 (MC-1A/B/C) are for the evaluation of the algicidal properties of the claimed structures at three different representative weight-% next to 35% cuprous oxide. Good performing references are model coating MC-2 and MC-3 [35% cuprous oxide+3% Seanine (MC-2) or 35% cuprous oxide+3% Irgarol (MC-3)]. Base level references are “cuprous oxide only” formulations [cuprous oxide only (35% (MC4) and 50% level (MC-5)]. • 2. Model coatings of type 6 and 7 are for the evaluation of the activity of the claimed structures against “hard fouling” in combination with two different types of algicides: claimed structure (1/2/4%; MC-6-A/B/C)+3% Seanine or claimed structure (1/2/4%; MC-7-A/B/C)+3% Irgarol). Base level references are “algicide only” formulations with 3% Seanine (MC-8) or 3% Irgarol (MC-9).
(§3) 3. Model coatings of type 10 (MC-10A/B) evaluate the total spectrum of biocidal activity by using the claimed structure as only biocide at 2 levels (4 and 8 w %). Good performing references are “cuprous oxide only” formulations [cuprous oxide 35% (MC-4) and 50% (MC-5)]. As blank serves model coating 11 (MC-1 1) containing no biocide at all.
(§4) The claimed structures were tested at several levels of dosage with and without an algicide as co-biocide. The following formulations were used for comparison: formulations with cuprous oxide, formulations with cuprous oxide and commercial co-biocides, a blank and two formulations that only contained the co-biocide and finally a commercial tributyltin-releasing self polishing system.
(§5) An even better protection can be obtained by combining claimed structures with co-biocides like the algicides that are commonly used for antifoulings.

[2] = system: fouling organisms; assay: Raft panel static immersion test of antifouling paints: overall; design: key: good (G); satisfactory (S); failure (F)
Excerpt: as §1, §2, §3, §4, §5

[3] = system: slime; assay: Raft panel static immersion test of antifouling paints: slime; design: key: G: Not present; Some light slime; F: Overall covered
Excerpt: as §1, §2, §3, §4, §5

[4] = system: hard fouling; assay: Raft panel static immersion test of antifouling paints: hard fouling; design: key: G: Not present; Some light slime; F: Overall covered
Excerpt: as §1, §2, §3, §4, §5

[5] = model coating 1B: 35% Cu2O + 2% of compound
[6] = model coating 1C: 35% Cu2O + 3% of compound
[7] = model coating 6A: 1% of compound + 3% Seanine
[8] = model coating 6B: 2% of compound + 3% Seanine
[9] = model coating 6C: 4% of compound + 3% Seanine
[10] = model coating 7A: 1% of compound + 3% Irgarol
[11] = model coating 7B: 2% of compound + 3% Irgarol
[12] = model coating 7C: 4% of compound + 3% Irgarol
[13] = model coating 1A: 35% Cu2O + 1% of compound
[14] = model coating 10A: 4% of compound as only biocide
[15] = model coating 10B: 8% of compound as only biocide

| SMILES | Performance (1 yr immersed) Algae [1, 5] | Performance (1 yr immersed) Algae [1, 6] | Performance (1 yr immersed) Algae [1, 7] | Performance (1 yr immersed) Algae [1, 8] | Performance (1 yr immersed) Algae [1, 9] | Performance (1 yr immersed) Algae [1, 10] | Performance (1 yr immersed) Algae [1, 11] | Performance (1 yr immersed) Algae [1, 12] | Performance (1 yr immersed) Overall [2, 13] | Performance (1 yr immersed) Overall [2, 5] | Performance (1 yr immersed) Overall [2, 6] | Performance (1 yr immersed) Overall [2, 7] | Performance (1 yr immersed) Overall [2, 8] | Performance (1 yr immersed) Overall [2, 9] | Performance (1 yr immersed) Overall [2, 10] | Performance (1 yr immersed) Overall [2, 11] | Performance (1 yr immersed) Overall [2, 12] | Performance (1 yr immersed) Overall [2, 14] | Performance (1 yr immersed) Overall [2, 15] | Performance (1 yr immersed) Slime [3, 13] | further results |
| --- | --- | --- | --- | --- | --- | --- | --- | --- | --- | --- | --- | --- | --- | --- | --- | --- | --- | --- | --- | --- | --- |
| COC(=O)NCCCCCCBr [Compound 2, N-methoxycarbonyl-6-bromohexylamine] | G | G | G | G | G | G | G | G | S | S | G | F | S | G | F | S | S | F | S | S | Performance (1 yr immersed) Slime [3, 5]: S; Performance (1 yr immersed) Slime [3, 6]: G; Performance (1 yr immersed) Slime [3, 7]: S; Performance (1 yr immersed) Slime [3, 8]: S; Performance (1 yr immersed) Slime [3, 9]: G; Performance (1 yr immersed) Slime [3, 10]: S; Performance (1 yr immersed) Slime [3, 11]: S; Performance (1 yr immersed) Slime [3, 12]: S; Performance (1 yr immersed) Slime [3, 14]: F; Performance (1 yr immersed) Slime [3, 15]: S; Performance (1 yr immersed) Hard fouling [4, 13]: G; Performance (1 yr immersed) Hard fouling [4, 5]: G; Performance (1 yr immersed) Hard fouling [4, 6]: G; Performance (1 yr immersed) Hard fouling [4, 9]: G; Performance (1 yr immersed) Hard fouling [4, 15]: G |
| O=CNCCCCCCCCCCCBr [Compound 7, N-formyl-11-bromo-undecyl-1-amine] | G | G | G | G | G | G | G | G | S | S | G | F | S | G | F | S | S | F | S | S | Performance (1 yr immersed) Slime [3, 5]: S; Performance (1 yr immersed) Slime [3, 6]: G; Performance (1 yr immersed) Slime [3, 7]: S; Performance (1 yr immersed) Slime [3, 8]: S; Performance (1 yr immersed) Slime [3, 9]: G; Performance (1 yr immersed) Slime [3, 10]: S; Performance (1 yr immersed) Slime [3, 11]: S; Performance (1 yr immersed) Slime [3, 12]: S; Performance (1 yr immersed) Slime [3, 14]: F; Performance (1 yr immersed) Slime [3, 15]: S; Performance (1 yr immersed) Hard fouling [4, 13]: G; Performance (1 yr immersed) Hard fouling [4, 5]: G; Performance (1 yr immersed) Hard fouling [4, 6]: G; Performance (1 yr immersed) Hard fouling [4, 9]: G; Performance (1 yr immersed) Hard fouling [4, 15]: G |
| O=CNCCCCCCCCCC(Br)CBr (centres unmarked) [Compound 3, N-formyl-10,11-dibromoundecylamine] | G | G | G | G | G | G | G | G | S | S | G | F | S | G | F | S | S | F | S | S | Performance (1 yr immersed) Slime [3, 5]: S; Performance (1 yr immersed) Slime [3, 6]: G; Performance (1 yr immersed) Slime [3, 7]: S; Performance (1 yr immersed) Slime [3, 8]: S; Performance (1 yr immersed) Slime [3, 9]: G; Performance (1 yr immersed) Slime [3, 10]: S; Performance (1 yr immersed) Slime [3, 11]: S; Performance (1 yr immersed) Slime [3, 12]: S; Performance (1 yr immersed) Slime [3, 14]: F; Performance (1 yr immersed) Slime [3, 15]: S; Performance (1 yr immersed) Hard fouling [4, 13]: G; Performance (1 yr immersed) Hard fouling [4, 5]: G; Performance (1 yr immersed) Hard fouling [4, 6]: G; Performance (1 yr immersed) Hard fouling [4, 9]: G; Performance (1 yr immersed) Hard fouling [4, 15]: G |
| CCCCCCCCCCCNC=O [Compound 9, N-formyl-1-aminoundecane] | G | G | G | G | G | G | G | G | S | S | G | F | S | G | F | S | S | F | S | S | Performance (1 yr immersed) Slime [3, 5]: S; Performance (1 yr immersed) Slime [3, 6]: G; Performance (1 yr immersed) Slime [3, 7]: S; Performance (1 yr immersed) Slime [3, 8]: S; Performance (1 yr immersed) Slime [3, 9]: G; Performance (1 yr immersed) Slime [3, 10]: S; Performance (1 yr immersed) Slime [3, 11]: S; Performance (1 yr immersed) Slime [3, 12]: S; Performance (1 yr immersed) Slime [3, 14]: F; Performance (1 yr immersed) Slime [3, 15]: S; Performance (1 yr immersed) Hard fouling [4, 13]: G; Performance (1 yr immersed) Hard fouling [4, 5]: G; Performance (1 yr immersed) Hard fouling [4, 6]: G; Performance (1 yr immersed) Hard fouling [4, 9]: G; Performance (1 yr immersed) Hard fouling [4, 15]: G |
